According to US8017612B2, “Piperazine compound and use thereof as a HCV polymerase inhibitor” (priority 2006, dated 2011):

Legend:
[1] = molecular target: T1, HCV polymerase (NS5B) type 1b (Hepatitis C virus genotype 1b, UniProt P26663); experiment: Assay of enzyme (HCV polymerase) inhibitory activity, type 1b enzyme; assay type: biochemical, HCV BK strain (type 1b); conditions: HCV polymerase inhibitory activity IC50, 1b, type 1b enzyme
T1 construct: a region encoding NS5B (J Virol 1991 March, 65(3), 1105-13, 544 amino acids after deletion of 47 amino acids on the C-terminal); 6xHis (C); made in house; host or cells: Escherichia coli
Outline: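 NS5B from HCV BK strain (type 1b), C-terminal 47 aa deleted, C-terminal His6-tagged, E. coli-expressed, 0.5 μg/ml, with ~450 nt substrate RNA carrying the 3′ UTR (polyU, 3′X) at 5 μg/ml. Incubation 60 min at 25 °C with 50 μM ATP/GTP/CTP, 2 μM UTP plus [3H]UTP, pH 7.5 Tris.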

[2] = molecular target: T2, HCV polymerase (NS5B) type 1a (Hepatitis C virus genotype 1a, UniProt P26664); experiment: Assay of enzyme (HCV polymerase) inhibitory activity, type 1a enzyme; assay type: biochemical, HCV type 1a (cloned from the blood of patients); conditions: HCV polymerase inhibitory activity IC50, 1a, type 1a enzyme
T2 construct: made in house; host or cells: Escherichia coli (by the 'similar method' of the 1b enzyme)
Outline: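 Patient-derived type 1a NS5B (C-terminal 47-aa deletion, His-tagged, E. coli-expressed) at 1.5 μg/ml was reacted with 5 μg/ml 3′UTR-containing substrate RNA, 50 μM ATP/GTP/CTP, 2 μM UTP plus [3H]UTP, pH 7.5, 25° C for 60 min. TCA-precipitated RNA radioactivity was counted; IC50 from ± compound.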

Structure (SMILES) | IC50 [1] | IC50 [2]
O=C(NCc1ccc(OC(F)(F)C(F)F)cc1)[C@H]1CN(c2nc3cn[nH]c(=O)c3s2)CCN1S(=O)(=O)c1ccc(OC(F)(F)F)cc1 [Example 898, (R)-4-(7-oxo-6,7-dihydro-thiazolo[4,5-d]pyridazin-2-yl)-1-(4-trifluoromethoxy-benzenesulfonyl)-piperazine-2-carboxylic acid 4-(1,1,2,2-tetrafluoro-ethoxy)-benzylamide] | < 100 nM | < 100 nM
O=C(NCC1CC(c2ccccc2)C1)[C@H]1CN(c2nc3cn[nH]c(=O)c3s2)CCN1S(=O)(=O)c1ccc(OC(F)(F)F)cc1 (stereo partly drawn) [Example 899, (R)-4-(7-oxo-6,7-dihydro-thiazolo[4,5-d]pyridazin-2-yl)-1-(4-trifluoromethoxy-benzenesulfonyl)-piperazine-2-carboxylic acid (3-phenyl-cyclobutylmethyl)-amide] | 100 to 1000 nM | > 1000 nM
CCC(F)(F)c1ccc(CNC(=O)[C@H]2CN(c3nc4cn[nH]c(=O)c4s3)CCN2S(=O)(=O)c2ccc(C(F)(F)F)cc2)cc1 [Example 900, (R)-4-(7-oxo-6,7-dihydro-thiazolo[4,5-d]pyridazin-2-yl)-1-(4-trifluoromethyl-benzenesulfonyl)-piperazine-2-carboxylic acid 4-(1,1-difluoro-propyl)-benzylamide] | < 100 nM | < 100 nM
O=C(NCc1ccc2ccccc2c1)[C@H]1CN(c2nc3cn[nH]c(=O)c3s2)CCN1S(=O)(=O)c1ccc(OC(F)(F)F)cc1 [Example 901, (R)-4-(7-oxo-6,7-dihydro-thiazolo[4,5-d]pyridazin-2-yl)-1-(4-trifluoromethoxy-benzenesulfonyl)-piperazine-2-carboxylic acid (naphthalen-2-ylmethyl)-amide] | < 100 nM | < 100 nM
CCC(F)(F)c1ccc(CNC(=O)[C@H]2CN(c3nc4nc(Cl)ncc4s3)CCN2S(=O)(=O)c2ccc(C(F)(F)F)cc2)cc1 [Example 902, (R)-4-(5-chloro-thiazolo[4,5-d]pyrimidin-2-yl)-1-(4-trifluoromethyl-benzenesulfonyl)-piperazine-2-carboxylic acid 4-(1,1-difluoro-propyl)-benzylamide] | < 100 nM | < 100 nM
CCC(F)(F)c1ccc(CNC(=O)[C@H]2CN(c3nc4ncncc4s3)CCN2S(=O)(=O)c2ccc(C(F)(F)F)cc2)cc1 [Example 903, (R)-4-thiazolo[4,5-d]pyrimidin-2-yl-1-(4-trifluoromethyl-benzenesulfonyl)-piperazine-2-carboxylic acid 4-(1,1-difluoro-propyl)-benzylamide] | < 100 nM | < 100 nM
Cn1ncc2nc(N3CCN(S(=O)(=O)c4ccc(OC(F)(F)F)cc4)[C@@H](C(=O)NCc4ccc(OC(F)(F)F)cc4)C3)sc2c1=O [Example 904, (R)-4-(6-methyl-7-oxo-6,7-dihydro-thiazolo[4,5-d]pyridazin-2-yl)-1-(4-trifluoromethoxy-benzenesulfonyl)-piperazine-2-carboxylic acid 4-trifluoromethoxy-benzylamide] | < 100 nM | 100 to 1000 nM
COc1ncc2sc(N3CCN(S(=O)(=O)c4ccc(C(F)(F)F)cc4)[C@@H](C(=O)NCc4ccc(OC(F)(F)F)cc4)C3)nc2n1 [Example 905, (R)-4-(5-methoxy-thiazolo[4,5-d]pyrimidin-2-yl)-1-(4-trifluoromethyl-benzenesulfonyl)-piperazine-2-carboxylic acid 4-trifluoromethoxy-benzylamide] | < 100 nM | < 100 nM
Cc1nnc(Cl)c2sc(N3CCN(S(=O)(=O)c4ccc(OC(F)(F)F)cc4)[C@@H](C(=O)NCc4ccc(OC(F)(F)F)cc4)C3)nc12 [Example 906, (R)-4-(7-chloro-4-methyl-thiazolo[4,5-d]pyridazin-2-yl)-1-(4-trifluoromethoxy-benzenesulfonyl)-piperazine-2-carboxylic acid 4-trifluoromethoxy-benzylamide] | < 100 nM | < 100 nM
Cc1nc(Cl)c2sc(N3CCN(S(=O)(=O)c4ccc(OC(F)(F)F)cc4)[C@@H](C(=O)NCc4ccc(OC(F)(F)F)cc4)C3)nc2n1 [Example 907, (R)-4-(7-chloro-5-methyl-thiazolo[4,5-d]pyrimidin-2-yl)-1-(4-trifluoromethoxy-benzenesulfonyl)-piperazine-2-carboxylic acid 4-trifluoromethoxy-benzylamide] | < 100 nM | < 100 nM
Cc1ncc2sc(N3CCN(S(=O)(=O)c4ccc(OC(F)(F)F)cc4)[C@@H](C(=O)NCc4ccc(OC(F)(F)F)cc4)C3)nc2n1 [Example 908, (R)-4-(5-methyl-thiazolo[4,5-d]pyrimidin-2-yl)-1-(4-trifluoromethoxy-benzenesulfonyl)-piperazine-2-carboxylic acid 4-trifluoromethoxy-benzylamide] | < 100 nM | < 100 nM
CCCc1nc(C)c(CNC(=O)[C@H]2CN(c3nc4cn[nH]c(=O)c4s3)CCN2S(=O)(=O)c2ccc(OC(F)(F)F)cc2)s1 [Example 909, (R)-4-(7-oxo-6,7-dihydro-thiazolo[4,5-d]pyridazin-2-yl)-1-(4-trifluoromethoxy-benzenesulfonyl)-piperazine-2-carboxylic acid (4-methyl-2-propyl-thiazol-5-ylmethyl)-amide] | < 100 nM | 100 to 1000 nM
Cc1nc2nc(N3CCN(S(=O)(=O)c4ccc(OC(F)(F)F)cc4)[C@@H](C(=O)NCc4ccc(OC(F)(F)F)cc4)C3)sc2c(=O)[nH]1 [Example 910, (R)-4-(5-methyl-7-oxo-6,7-dihydro-thiazolo[4,5-d]pyrimidin-2-yl)-1-(4-trifluoromethoxy-benzenesulfonyl)-piperazine-2-carboxylic acid 4-trifluoromethoxy-benzylamide] | < 100 nM | < 100 nM
CCC(F)(F)c1ccc(CNC(=O)[C@H]2CN(c3nc4nc(C)[nH]c(=O)c4s3)CCN2S(=O)(=O)c2ccc(OC(F)(F)F)cc2)cc1 [Example 911, (R)-4-(5-methyl-7-oxo-6,7-dihydro-thiazolo[4,5-d]pyrimidin-2-yl)-1-(4-trifluoromethoxy-benzenesulfonyl)-piperazine-2-carboxylic acid 4-(1,1-difluoro-propyl)-benzylamide] | < 100 nM | < 100 nM
O=C(NCc1ccc(OC(F)(F)F)cc1)[C@H]1CN(c2nc3nc(Br)ncc3s2)CCN1S(=O)(=O)c1ccc(OC(F)(F)F)cc1 [Example 912, (R)-4-(5-bromo-thiazolo[4,5-d]pyrimidin-2-yl)-1-(4-trifluoromethoxy-benzenesulfonyl)-piperazine-2-carboxylic acid 4-trifluoromethoxy-benzylamide] | < 100 nM | < 100 nM
CCCc1ccc(CNC(=O)[C@H]2CN(c3nc4nc(Cl)ncc4s3)CCN2S(=O)(=O)c2ccc(OC(F)(F)F)cc2)cc1 [Example 913, (R)-4-(5-chloro-thiazolo[4,5-d]pyrimidin-2-yl)-1-(4-trifluoromethoxy-benzenesulfonyl)-piperazine-2-carboxylic acid 4-propyl-benzylamide] | < 100 nM | < 100 nM
CCCc1ccc(CNC(=O)[C@H]2CN(c3nc4ncncc4s3)CCN2S(=O)(=O)c2ccc(OC(F)(F)F)cc2)cc1 [Example 914, (R)-4-thiazolo[4,5-d]pyrimidin-2-yl-1-(4-trifluoromethoxy-benzenesulfonyl)-piperazine-2-carboxylic acid 4-propyl-benzylamide] | < 100 nM | < 100 nM
NC(=O)c1nncc2sc(N3CCN(S(=O)(=O)c4ccc(OC(F)(F)F)cc4)[C@@H](C(=O)NCc4ccc(OC(F)(F)F)cc4)C3)nc12 [Example 915, 2-[(R)-4-(4-trifluoromethoxy-benzenesulfonyl)-3-(4-trifluoromethoxy-benzylcarbamoyl)-piperazin-1-yl]-thiazolo[4,5-d]pyridazine-4-carboxylic acid amide] | < 100 nM | < 100 nM
CNC(=O)c1nncc2sc(N3CCN(S(=O)(=O)c4ccc(OC(F)(F)F)cc4)[C@@H](C(=O)NCc4ccc(OC(F)(F)F)cc4)C3)nc12 [Example 916, 2-[(R)-4-(4-trifluoromethoxy-benzenesulfonyl)-3-(4-trifluoromethoxy-benzylcarbamoyl)-piperazin-1-yl]-thiazolo[4,5-d]pyridazine-4-carboxylic acid methylamide] | < 100 nM | < 100 nM
Cc1nncc2sc(N3CCN(S(=O)(=O)c4ccc(OC(F)(F)F)cc4)[C@@H](C(=O)NCc4ccc(OC(F)(F)F)cc4)C3)nc12 [Example 917, (R)-4-(4-methyl-thiazolo[4,5-d]pyridazin-2-yl)-1-(4-trifluoromethoxy-benzenesulfonyl)-piperazine-2-carboxylic acid 4-trifluoromethoxy-benzylamide] | < 100 nM | < 100 nM
O=C(NCc1ccc(OC(F)(F)F)cc1)[C@H]1CN(c2nc3nc(Cl)ncc3s2)CCN1S(=O)(=O)c1ccc(OC(F)F)cc1 [Example 918, (R)-4-(5-chloro-thiazolo[4,5-d]pyrimidin-2-yl)-1-(4-difluoromethoxy-benzenesulfonyl)-piperazine-2-carboxylic acid 4-trifluoromethoxy-benzylamide] | < 100 nM | < 100 nM
